From patent publication US20240239752A1, “BICYCLIC HETEROAROMATIC INHIBITORS OF KLK5” (BioCryst Pharmaceuticals, Inc., priority 2021, published 2024)

Target: T1, recombinant human KLK5 (Homo sapiens, UniProt Q9Y337)
T1 construct: purchased Novoprotein or R&D Systems C415 or 1108-SE
T1 sequence (Q9Y337 23-293): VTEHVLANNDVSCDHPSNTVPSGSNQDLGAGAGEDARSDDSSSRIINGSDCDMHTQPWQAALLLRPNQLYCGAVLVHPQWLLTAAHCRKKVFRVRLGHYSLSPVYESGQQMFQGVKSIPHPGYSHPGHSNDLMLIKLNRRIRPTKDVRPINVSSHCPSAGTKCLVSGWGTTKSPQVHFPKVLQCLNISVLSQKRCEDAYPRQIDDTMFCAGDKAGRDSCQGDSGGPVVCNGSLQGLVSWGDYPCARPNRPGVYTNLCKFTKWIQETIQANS
Assay: Kallikrein (KLK) 5 enzymatic assay (Boc-VPR-AMC fluorogenic substrate)
Type: biochemical
Settings: recombinant human KLK5 0.1 μg/well, Boc-VPR-AMC 100 μM, pH 7.5, room temperature, 1% DMSO; tested a minimum of three times
How it was run: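 Recombinant human KLK5 (0.1 μg/well) was preincubated with compound at room temperature in 0.1 M NaH2PO4, pH 7.5, 1% DMSO, then started with 100 μM Boc-VPR-AMC. The rate was followed at 380/460 nm, and IC50 came from percent inhibition relative to enzyme alone, with at least three runs.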

`CC(C)n1nc(COc2ccccc2CC(=O)O)c2cc(-c3ccc4c(N)noc4c3)ccc21` [Compound 49a, 2-(2-((5-(3-aminobenzo[d]isoxazol-6-yl)-1-isopropyl-1H-indazol-3-yl)methoxy)phenyl)acetic acid] was tested, and the IC50 was greater than 10 µM.
For `Cc1ccc(OCc2nn(C3CCC3)c3ccc(-c4cccc5c(N)nccc45)cc23)c(CC(=O)O)c1` [Compound 165b, 2-(2-((5-(1-aminoisoquinolin-5-yl)-1-cyclobutyl-1H-indazol-3-yl)methoxy)-5-methylphenyl)acetic acid], the IC50 was less than 1 µM.
For `CC(C)COC(=O)N1CC[C@@H](n2nc(COc3ccccc3CC(=O)O)c3cc(-c4cccc5c(N)nccc45)ccc32)C1` [Compound 365b, (R)-2-(2-((5-(1-aminoisoquinolin-5-yl)-1-(1-(isobutoxycarbonyl)pyrrolidin-3-yl)-1H-indazol-3-yl)methoxy)phenyl)acetic acid], the IC50 was less than 1 µM.
`CC(C)COC(=O)N1CC[C@@H](n2nc(COc3ccccc3CC(=O)O)c3cc(-c4ccc5ccnc(N)c5c4)ccc32)C1` [Compound 364c, (R)-2-(2-((5-(1-aminoisoquinolin-7-yl)-1-(1-(isobutoxycarbonyl)pyrrolidin-3-yl)-1H-indazol-3-yl)methoxy)phenyl)acetic acid] gave an IC50 of less than 1 µM.
For `Nc1nccc2c(-c3ccc4c(c3)c(COc3ccccc3CC(=O)O)nn4C3CCOC3)cccc12` (stereo not drawn) [Compound 249b, 2-(2-((5-(1-aminoisoquinolin-5-yl)-1-(tetrahydrofuran-3-yl)-1H-indazol-3-yl)methoxy)phenyl)acetic acid], the IC50 was less than 1 µM.
With `COc1cc2nn(C3CCC3)c(COc3ccccc3CC(=O)O)c2cc1-c1ccc2ccnc(N)c2c1` [Compound 269f, 2-(2-((5-(1-aminoisoquinolin-7-yl)-2-cyclobutyl-6-methoxy-2H-indazol-3-yl)methoxy)phenyl)acetic acid] the IC50 was less than 1 µM.
`CC(C)n1nc(COc2ccccc2CC(=O)O)c2cc(-c3ccc4ccnc(N)c4c3)ccc21` [Compound 100b, 2-(2-((5-(1-aminoisoquinolin-7-yl)-1-isopropyl-1H-indazol-3-yl)methoxy)phenyl)acetic acid] showed an IC50 of less than 1 µM.
For `CC(C)CCN1CCC(n2nc3ccc(-c4cccc5c(N)nccc45)cc3c2COc2ccccc2CC(=O)O)CC1` [Compound 132b, 2-(2-((5-(1-aminoisoquinolin-5-yl)-2-(1-isopentylpiperidin-4-yl)-2H-indazol-3-yl)methoxy)phenyl)acetic acid], the IC50 was less than 1 µM.
Molecule `COc1ccc(CC(=O)O)c(OC2c3cc(-c4ccc5ccnc(N)c5c4)ccc3CC2(C)C)c1` (stereo not drawn) [Compound 441b, 2-(2-((6-(1-aminoisoquinolin-7-yl)-2,2-dimethyl-2,3-dihydro-1H-inden-1-yl)oxy)-4-methoxyphenyl)acetic acid] has an IC50 of 1 to 10 µM.
In the case of `Nc1nccc2c(-c3ccc4c(c3)[C@@H](Oc3ccccc3CC(=O)O)C[C@@H]4N3CCCCC3)cccc12` [Compound 459g, (−)-trans 2-(2-(((1S,3S)-6-(1-aminoisoquinolin-5-yl)-3-(piperidin-1-yl)-2,3-dihydro-1H-inden-1-yl)oxy)phenyl)acetic acid], the IC50 is reported as 1 to 10 µM.
With `Nc1nccc2c(-c3ccc4nn(C5CCC5)c(COc5cc(F)ccc5CC(=O)O)c4c3)cccc12` [Compound 150b, 2-(2-((5-(1-aminoisoquinolin-5-yl)-2-cyclobutyl-2H-indazol-3-yl)methoxy)-4-fluorophenyl)acetic acid] the IC50 was less than 1 µM.
With `COc1c(-c2ccc3c(c2)c(COc2ccccc2CC(=O)O)nn3C(C)C)ccnc1C(=N)N` [Compound 81d, 2-(2-((5-(2-carbamimidoyl-3-methoxypyridin-4-yl)-1-isopropyl-1H-indazol-3-yl)methoxy)phenyl)acetic acid] the IC50 was less than 1 µM.
Work on `Nc1nccc2c(-c3ccc4c(c3)c(COc3ccccc3CC(=O)O)nn4CC3CC3)cccc12` [Compound 251c, 2-(2-((5-(1-aminoisoquinolin-5-yl)-1-(cyclopropylmethyl)-1H-indazol-3-yl)methoxy)phenyl)acetic acid] yielded an IC50 of less than 1 µM.
For `CC1CC(n2nc(COc3ccccc3CC(=O)O)c3cc(-c4ccc5ccnc(N)c5c4)ccc32)C1` (stereo not drawn) [Compound 9j, 2-(2-((5-(1-aminoisoquinolin-7-yl)-1-(3-methylcyclobutyl)-1H-indazol-3-yl)methoxy)phenyl)acetic acid], the IC50 was less than 1 µM.
Work on `COC(=O)N1CCC2(CC1)CC(Oc1c(C#N)cccc1CC(=O)O)c1cc(-c3ccc4ccnc(N)c4c3)ccc12` (stereo not drawn) [Compound 454c, 2-(2-((5-(1-aminoisoquinolin-7-yl)-1′-(methoxycarbonyl)-2,3-dihydrospiro[indene-1,4′-piperidin]-3-yl)oxy)-3-cyanophenyl)acetic acid] yielded an IC50 of 1 to 10 µM.
Work on `Nc1nccc2c(-c3ccc4c(c3)[C@H](Oc3cc(C(F)(F)F)ccc3CC(=O)O)CC4)cccc12` [Compound 428b, (R)-2-(2-((6-(1-aminoisoquinolin-5-yl)-2,3-dihydro-1H-inden-1-yl)oxy)-4-(trifluoromethyl)phenyl)acetic acid] yielded an IC50 of less than 1 µM.
Molecule `Nc1nccc2c(-c3ccc4nn([C@H]5CCN(CC(=O)O)C5)c(COc5ccccc5CC(=O)O)c4c3)cccc12` [Compound 114d, (S)-2-(2-((5-(1-aminoisoquinolin-5-yl)-2-(1-(carboxymethyl)pyrrolidin-3-yl)-2H-indazol-3-yl)methoxy)phenyl)acetic acid] has an IC50 of less than 1 µM.
Work on `COc1cc(-c2cccc(C(=N)N)c2)cc2c(COc3ccccc3CC(=O)O)coc12` [Compound 236b, 2-(2-((5-(3-carbamimidoylphenyl)-7-methoxybenzofuran-3-yl)methoxy)phenyl)acetic acid] yielded an IC50 of less than 1 µM.
For `Nc1nccc2c(-c3ccc4c(c3)c(COc3ccccc3CC(=O)O)nn4C3CN(CCO)C3)cccc12` [Compound 147c, 2-(2-((5-(1-aminoisoquinolin-5-yl)-1-(1-(2-hydroxyethyl)azetidin-3-yl)-1H-indazol-3-yl)methoxy)phenyl)acetic acid], the IC50 was less than 1 µM.
Work on `Nc1nccc2ccc(-c3cc(F)c4c(c3)C(Oc3ccccc3CC(=O)O)CC4)cc12` (stereo not drawn) [Compound 207e, 2-(2-((6-(1-aminoisoquinolin-7-yl)-4-fluoro-2,3-dihydro-1H-inden-1-yl)oxy)phenyl)acetic acid] yielded an IC50 of less than 1 µM.
Molecule `Cc1cccc(OCc2nn(CC3CCOC3)c3ccc(-c4ccc5ccnc(N)c5c4)cc23)c1CC(=O)O` (stereo not drawn) [Compound 95b, 2-(2-((5-(1-aminoisoquinolin-7-yl)-1-((tetrahydrofuran-3-yl)methyl)-1H-indazol-3-yl)methoxy)-6-methylphenyl)acetic acid] has an IC50 of less than 1 µM.
Work on `Cc1cc(-c2ccc3ccnc(N)c3c2)cc2c(COc3ccccc3CC(=O)O)coc12` [Compound 233f, 2-(2-((5-(1-aminoisoquinolin-7-yl)-7-methylbenzofuran-3-yl)methoxy)phenyl)acetic acid] yielded an IC50 of 1 to 10 µM.
Molecule `CC(C)(C)OC(=O)N1CC(Cn2nc3ccc(-c4ccc5ccnc(N)c5c4)cc3c2COc2ccccc2CC(=O)O)C1` [Compound 141b, 2-(2-((5-(1-aminoisoquinolin-7-yl)-2-((1-(tert-butoxycarbonyl)azetidin-3-yl)methyl)-2H-indazol-3-yl)methoxy)phenyl)acetic acid] has an IC50 of 1 to 10 µM.
`CCOC(=O)N1CC[C@H](n2nc(COc3cccc(C)c3CC(=O)O)c3cc(-c4ccc5ccnc(N)c5c4)ccc32)C1` [Compound 343i, (S)-2-(2-((5-(1-aminoisoquinolin-7-yl)-1-(1-(ethoxycarbonyl)pyrrolidin-3-yl)-1H-indazol-3-yl)methoxy)-6-methylphenyl)acetic acid] was tested, and the IC50 was less than 1 µM.
`COCCN1CCC(n2nc3ccc(-c4cccc5c(N)nccc45)cc3c2COc2ccccc2CC(=O)O)CC1` [Compound 134c, 2-(2-((5-(1-aminoisoquinolin-5-yl)-2-(1-(2-methoxyethyl)piperidin-4-yl)-2H-indazol-3-yl)methoxy)phenyl)acetic acid] showed an IC50 of less than 1 µM.
Molecule `N=C(N)c1cccc(-c2ccc3c(c2)c(COc2ccccc2CC(=O)O)nn3-c2ccccc2)c1` [Compound 203c, 2-(2-((5-(3-carbamimidoylphenyl)-1-phenyl-1H-indazol-3-yl)methoxy)phenyl)acetic acid] has an IC50 of less than 1 µM.
Work on `COC(=O)N1CCC2(CC1)CC(Oc1ccccc1CC(=O)O)c1cc(-c3ccc4ccnc(N)c4c3)ccc12` (stereo not drawn) [Compound 370c, 2-(2-((5-(1-aminoisoquinolin-7-yl)-1′-(methoxycarbonyl)-2,3-dihydrospiro[indene-1,4′-piperidin]-3-yl)oxy)phenyl)acetic acid] yielded an IC50 of less than 1 µM.
In the case of `Cc1cccc(OCc2nn(C3CCC(F)(F)C3)c3ccc(-c4cccc5c(N)nccc45)cc23)c1CC(=O)O` (stereo not drawn) [Compound 276c, 2-(2-((5-(1-aminoisoquinolin-5-yl)-1-(3,3-difluorocyclopentyl)-1H-indazol-3-yl)methoxy)-6-methylphenyl)acetic acid], the IC50 is reported as less than 1 µM.
With `Nc1nccc2c(-c3ccc4c(c3)C(Oc3ccccc3CC(=O)O)CC43CCCCC3)cccc12` (stereo not drawn) [Compound 376f, 2-(2-((5′-(1-aminoisoquinolin-5-yl)-2′,3′-dihydrospiro[cyclohexane-1,1′-inden]-3′-yl)oxy)phenyl)acetic acid] the IC50 was less than 1 µM.
Work on `CC[C@H](C)n1nc(COc2ccccc2CC(=O)O)c2cc(-c3ccc4ccnc(N)c4c3)ccc21` [Compound 192e, (S)-2-(2-((5-(1-aminoisoquinolin-7-yl)-1-(sec-butyl)-1H-indazol-3-yl)methoxy)phenyl)acetic acid] yielded an IC50 of less than 1 µM.
